# According to patent publication US10401295B2, “Composition and method for monitoring lipid” (Memorial Sloan-Kettering Cancer Center, priority 2014, dated 2019):
# Tests used:
# HeLa cells [1] = experiment: hyperspectral imaging of CNOR emission in live HeLa cells; format: cell-based; settings: for effect on blue-shifting of CNOR emission: HeLa cells, relative to control
# Procedure: Cell Lines and Cell Culture Procedures: HeLa CCL-2 cells (ATCC, Manassas, Va., US) were grown under standard incubation conditions at 37° C. and 5% CO2 in sterile-filtered DMEM with 10% heat-inactivated FBS, 2.5% HEPES, 1% Glutamine, and 1% Penicillin/Streptomycin (all Gibco). For studies performed with homozygous mutant NPC, compound mutant heterozygote NPC, or wild-type fibroblasts, the cell lines GM18453, GM03123 or GM05659 (Coriell, Camden, N.J., US), respectively, were cultured in MEM with 10% FBS, 2.5% HEPES, and 1% Glutamine. Cells were plated on glass-bottom petri dishes, or lysine-covered glass dishes (MatTek) for fibroblasts. Unpurified SWCNT were incubated at 1 mg/L and separated SWCNT were incubated at 0.25 mg/L in media with cells for 30 minutes at 37° C. Depending on the experiment, cells were imaged immediately, or trypsinized (Gibco) and re-plated on a fresh glass-bottom petri dish followed by hyperspectral imaging. Pharmacological treatments on HeLa cells were performed with Nocodazole (Sigma, 10 μg/mL added after SWCNT incubation) or U18666A (Sigma, 3 μg/mL added 6 hours prior to SWCNT incubation). Fibroblast cells were incubated with hydroxypropyl-β-cyclodextrin (Sigma, 100 μM) 6 hours prior to SWCNT incubation. Cells were incubated for 30 minutes with 0.25 mg/L of the SWCNTs before rinsing and replacing with fresh media. Hyperspectral imaging was conducted immediately afterwards and 24 hours later. A DNA-encapsulated nanotube complex, undergoing a continuous solvatochromic shifting response, spatially and temporally tracked endosomal maturation in live HeLa cells. Separated (8,6) nanotubes encapsulated by an ss(GT)6 oligonucleotide, with a median length of 236 nm, were incubated with HeLa cells at 0.25 mg/L for 30 minutes before rinsing and replacing with fresh media. The wavelength distribution of the nanotube complex in endosomes, measured immediately after uptake, was centered at 1200.7±0.4 nm, near the bulk value observed in water. In lysosomes, after 6 hours post-incubation, the wavelength distribution broadened before blue-shifting to 1194.3±0.7 nm at the 24-hour timepoint (FIG. 2, panel A). A small red-shifted nanotube population, with a mean wavelength of 1205 nm, appeared at the 6-hour time point but disappeared by 24 hours. The relative mean wavelength of each emissive region of interest (ROI) was laid over a transmitted light image of the cells, resulting in spatial visualization of the spectral distribution (FIG. 2, panel B). […] The interaction of GT6-(8,6) nanotubes with RAW 264.7 macrophages was characterized, by incubating 2 pM of nanotubes in cell media for 30 minutes at 37° C. Under these conditions, the majority of cells efficiently took up nanotubes via energy-dependent mechanisms.
# HeLa cells [2] = experiment: filipin staining of unesterified cholesterol in HeLa cells; format: cell-based; settings: fixed HeLa cells, versus control
# Procedure: Filipin staining was conducted by fixing cells with 1.5% paraformaldehyde in PBS for 20 minutes. Cells were then labeled with 50 μg/mL filipin for 45 minutes. After washing, filipin images were acquired using 350/50 nm excitation and 460/50 mm emission filters with a 400 nm dichroic long-pass filter (Olympus).
# RAW 264.7 macrophages = experiment: CNOR emission in RAW 264.7 macrophages (lysosomal lipid accumulation); format: cell-based; settings: for blue shift compared with control macrophages: DMEM+10% FBS, U18666A, 10 uM Lalistat
# Procedure: A DNA-encapsulated nanotube complex, undergoing a continuous solvatochromic shifting response, spatially and temporally tracked endosomal maturation in live HeLa cells. Separated (8,6) nanotubes encapsulated by an ss(GT)6 oligonucleotide, with a median length of 236 nm, were incubated with HeLa cells at 0.25 mg/L for 30 minutes before rinsing and replacing with fresh media. The wavelength distribution of the nanotube complex in endosomes, measured immediately after uptake, was centered at 1200.7±0.4 nm, near the bulk value observed in water. In lysosomes, after 6 hours post-incubation, the wavelength distribution broadened before blue-shifting to 1194.3±0.7 nm at the 24-hour timepoint (FIG. 2, panel A). A small red-shifted nanotube population, with a mean wavelength of 1205 nm, appeared at the 6-hour time point but disappeared by 24 hours. The relative mean wavelength of each emissive region of interest (ROI) was laid over a transmitted light image of the cells, resulting in spatial visualization of the spectral distribution (FIG. 2, panel B). […] The interaction of GT6-(8,6) nanotubes with RAW 264.7 macrophages was characterized, by incubating 2 pM of nanotubes in cell media for 30 minutes at 37° C. Under these conditions, the majority of cells efficiently took up nanotubes via energy-dependent mechanisms.
# RAW macrophages were incubated in lipoprotein depleted serum (LPDS) for 24 hours. Incubation in these conditions reduces the lipid content of the lysosomes and increases the number of surface receptors for acetylated LDL (Ac-LDL) on the cell surface. To induce lipid accumulation in the lysosomes, Ac-LDL and U18666A (a cholesterol transport inhibitor) were introduced to cells incubating in the lipoprotein depleted serum. […]
# The reporter detected Wolman's disease, a lysosomal storage disorder characterized by the accumulation of esterified cholesterol in the lysosomes due to a non-functioning lysosomal acid lipase (LAL). […]
# [3] = tested on: NPC1 fibroblasts (compound heterozygous mutations of the NPC1 gene); experiment: reporter emission in compound heterozygous NPC1 patient fibroblasts; format: cell-based, human
# Procedure: (§1) Cell Lines and Cell Culture Procedures: HeLa CCL-2 cells (ATCC, Manassas, Va., US) were grown under standard incubation conditions at 37° C. and 5% CO2 in sterile-filtered DMEM with 10% heat-inactivated FBS, 2.5% HEPES, 1% Glutamine, and 1% Penicillin/Streptomycin (all Gibco). For studies performed with homozygous mutant NPC, compound mutant heterozygote NPC, or wild-type fibroblasts, the cell lines GM18453, GM03123 or GM05659 (Coriell, Camden, N.J., US), respectively, were cultured in MEM with 10% FBS, 2.5% HEPES, and 1% Glutamine. Cells were plated on glass-bottom petri dishes, or lysine-covered glass dishes (MatTek) for fibroblasts. Unpurified SWCNT were incubated at 1 mg/L and separated SWCNT were incubated at 0.25 mg/L in media with cells for 30 minutes at 37° C. Depending on the experiment, cells were imaged immediately, or trypsinized (Gibco) and re-plated on a fresh glass-bottom petri dish followed by hyperspectral imaging.
# In a similar procedure to the experiment with homozygous NPC cells, fibroblasts with the compound heterozygous mutation of the NPC1 gene were plated on a poly-d-lysine-coated glass-bottomed petri-dish and imaged at different time points after an initial 30 minute incubation with the SWCNTs. Histograms of the wavelength distribution profile of the SWCNTs were obtained. […]
# [4] = tested on: NPC fibroblasts (homozygous mutation of the NPC1 gene); experiment: CNOR emission in homozygous NPC patient fibroblasts; format: cell-based, human
# Procedure: as §1
# Pharmacological treatments on HeLa cells were performed with Nocodazole (Sigma, 10 μg/mL added after SWCNT incubation) or U18666A (Sigma, 3 μg/mL added 6 hours prior to SWCNT incubation). […]
# Niemann Pick Type-C(NPC) is a lysosomal storage disorder characterized by massive accumulation of unesterified cholesterol in the lysosomes of patient fibroblasts. […]
molecule,measurement,setting,value
Cl.N [NH4Cl],effect on CNOR emission populations,HeLa cells [1]; 50 mM added 6 hours after incubation with the CNOR,blue-shifted population remained unaffected while the red-shifted population was depleted
CCN(CC)CCO[C@H]1CC[C@@]2(C)C(=CC[C@@H]3[C@@H]2CC[C@]2(C)C(=O)CC[C@@H]32)C1 [U18666A],intensity of filipin in the cell interior,HeLa cells [2],increased greatly
same,blue shift compared with control macrophages,RAW 264.7 macrophages,~8 nm
same,CNOR blue-shift in drug-treated cells relative to drug-free control,RAW 264.7 macrophages; RAW 264.7 macrophages,11.1±1.1 nm
same,further increase in blue shift than in untreated control cells,"HeLa cells [1]; 3 μg/mL for six hours before incubation with the CNOR, at 24 hours",3.8±0.7 nm
same,effect on blue-shifting of CNOR emission,HeLa cells [1],enhanced
COC(=O)Nc1nc2ccc(C(=O)c3cccs3)cc2[nH]1 [nocodazole],effect on blue-shifting of CNOR emission,HeLa cells [1],prevented the blue-shifting
same,mean CNOR emission,"HeLa cells [1]; nocodazole 10 μg/mL, up to 24 hours after internalization, control 1194.28±0.73",1200.07±1.4 nm
Lalistat,blue shift compared with control macrophages,RAW 264.7 macrophages,~8 nm
hydroxypropyl-β-cyclodextrin [HPβCD],red-shift of nanotube emission,"[3]; 100 uM for 24 hours, 24 hours after nanotube addition",approximately 4 nm
same,emission in pretreated NPC1 cells versus WT fibroblasts,[3]; pre-treated 24 hours prior to nanotube addition,identical emission values
same,effect on CNOR blue-shift in NPC cells,"[4]; HPβCD for additional 24 hours, after imaging at 24 hours",reversal of the CNOR blue-shift
same,effect of pre-treatment on CNOR fluorescence shifting in diseased cells,[4]; pre-treatment before CNOR incubation,prevented CNOR fluorescence from shifting
